≈ marks a conversion by molar mass, not a printed value.
Assays:
Assay type in all cases: functional
Streptococcus equinus [1] = experiment: Antimicrobial activity against viridans group Streptococcus bovis at <= 0.06 ug/ml by broth microdilution method
[2] = test system: Streptococcus parasanguinis; experiment: Antimicrobial activity against viridans group Streptococcus parasanguis at 0.25 ug/ml by broth microdilution method
[3] = test system: Enterococcus casseliflavus; experiment: Antimicrobial activity against Enterococcus casseliflavus at 0.5 ug/ml by broth microdilution method
Bacillus cereus [4] = experiment: Antimicrobial activity against Bacillus cereus at 0.5 ug/ml by broth microdilution method
[5] = test system: Streptococcus vestibularis; experiment: Antimicrobial activity against viridans group Streptococcus vestibularis at <= 0.06 ug/ml by broth microdilution method
Streptococcus equinus [6] = experiment: Antimicrobial activity against viridans group Streptococcus bovis at 1 ug/ml by broth microdilution method
Rothia mucilaginosa [7] = experiment: Antimicrobial activity against Rothia mucilaginosa at <= 0.06 ug/ml by broth microdilution method
Aerococcus [8] = experiment: Antimicrobial activity against Aerococcus spp. at 0.12 ug/ml by broth microdilution method
[9] = test system: Streptococcus intermedius; experiment: Antimicrobial activity against viridans group Streptococcus intermedius at 1 ug/ml by broth microdilution method
[10] = test system: Streptococcus parasanguinis; experiment: Antimicrobial activity against viridans group Streptococcus parasanguis by broth microdilution method
Rothia mucilaginosa [11] = experiment: Antimicrobial activity against Rothia mucilaginosa at 0.5 ug/ml by broth microdilution method
Streptococcus sanguinis [12] = experiment: Antimicrobial activity against viridans group Streptococcus sanguinis at 1 ug/ml by broth microdilution method
Corynebacterium striatum [13] = experiment: Antimicrobial activity against Corynebacterium striatum at 0.5 ug/ml by broth microdilution method
Aerococcus [14] = experiment: Antimicrobial activity against Aerococcus spp. at 0.25 ug/ml by broth microdilution method
Streptococcus sanguinis [15] = experiment: Antimicrobial activity against viridans group Streptococcus sanguinis at 2 ug/ml by broth microdilution method
Streptococcus mitis [16] = experiment: Antimicrobial activity against viridans group Streptococcus mitis at 0.12 ug/ml by broth microdilution method
[17] = test system: Corynebacterium amycolatum; experiment: Antimicrobial activity against Corynebacterium amycolatum at 0.25 ug/ml by broth microdilution method
Corynebacterium striatum [18] = experiment: Antimicrobial activity against Corynebacterium striatum by broth microdilution method
Enterococcus durans = experiment: Antimicrobial activity against Enterococcus durans at 0.25 ug/ml by broth microdilution method
[19] = test system: Streptococcus parasanguinis; experiment: Antimicrobial activity against viridans group Streptococcus parasanguis at 0.12 ug/ml by broth microdilution method
Rothia mucilaginosa [20] = experiment: Antimicrobial activity against Rothia mucilaginosa at 1 ug/ml by broth microdilution method
[21] = test system: Corynebacterium pseudodiphtheriticum; experiment: Antimicrobial activity against Corynebacterium pseudodiphtheriticum at 1 ug/ml by broth microdilution method
Streptococcus mitis [22] = experiment: Antimicrobial activity against viridans group Streptococcus mitis at 0.5 ug/ml by broth microdilution method
Streptococcus salivarius = experiment: Antimicrobial activity against viridans group Streptococcus salivarius at 1 ug/ml by broth microdilution method
Streptococcus mutans [23] = experiment: Antimicrobial activity against viridans group Streptococcus mutans at 0.5 ug/ml by broth microdilution method
Streptococcus [24] = experiment: Antimicrobial activity against beta hemolytic Streptococcus group C at <= 0.06 ug/ml by broth microdilution method
Aerococcus [25] = experiment: Antimicrobial activity against Aerococcus spp. at 0.5 ug/ml by broth microdilution method
Enterococcus avium [26] = experiment: Antimicrobial activity against Enterococcus avium at 0.12 ug/ml by broth microdilution method
Streptococcus [27] = experiment: Antimicrobial activity against beta hemolytic Streptococci group G at 0.25 ug/ml by broth microdilution method
Enterococcus avium [28] = experiment: Antimicrobial activity against Enterococcus avium by broth microdilution method
Corynebacterium sp. = experiment: Antimicrobial activity against Corynebacterium spp. at <= 0.06 ug/ml by broth microdilution method
Enterococcus hirae [29] = experiment: Antimicrobial activity against Enterococcus hirae at 0.25 ug/ml by broth microdilution method
Streptococcus mitis [30] = experiment: Antimicrobial activity against viridans group Streptococcus mitis at 1 ug/ml by broth microdilution method
Streptococcus mutans [31] = experiment: Antimicrobial activity against viridans group Streptococcus mutans at 2 ug/ml by broth microdilution method
Enterococcus gallinarum [32] = experiment: Antimicrobial activity against Enterococcus gallinarum at 0.25 ug/ml by broth microdilution method
[33] = test system: Corynebacterium pseudodiphtheriticum; experiment: Antimicrobial activity against Corynebacterium pseudodiphtheriticum at 0.25 ug/ml by broth microdilution method
Bacillus cereus [34] = experiment: Antimicrobial activity against Bacillus cereus at <= 0.06 ug/ml by broth microdilution method
Streptococcus oralis [35] = experiment: Antimicrobial activity against viridans group Streptococcus oralis at by broth microdilution method
Bacillus cereus [36] = experiment: Antimicrobial activity against Bacillus cereus at 0.25 ug/ml by broth microdilution method
Streptococcus mitis [37] = experiment: Antimicrobial activity against viridans group Streptococcus mitis at 0.25 ug/ml by broth microdilution method
Enterococcus hirae [38] = experiment: Antimicrobial activity against Enterococcus hirae at 0.5 ug/ml by broth microdilution method
Micrococcus luteus = experiment: Antimicrobial activity against Micrococcus luteus at 0.12 ug/ml by broth microdilution method
[39] = test system: Streptococcus constellatus; experiment: Antimicrobial activity against viridans group Streptococcus constellatus at 1 ug/ml by broth microdilution method
Streptococcus oralis [40] = experiment: Antimicrobial activity against viridans group Streptococcus oralis at 1 ug/ml by broth microdilution method
Enterococcus gallinarum [41] = experiment: Antimicrobial activity against Enterococcus gallinarum at 0.5 ug/ml by broth microdilution method
Listeria monocytogenes [42] = experiment: Antimicrobial activity against Listeria monocytogenes at 0.25 ug/ml by broth microdilution method
Bacillus cereus [43] = experiment: Antimicrobial activity against Bacillus cereus at 1 ug/ml by broth microdilution method
Streptococcus mutans [44] = experiment: Antimicrobial activity against viridans group Streptococcus mutans at 0.25 ug/ml by broth microdilution method
Enterococcus raffinosus = experiment: Antimicrobial activity against Enterococcus raffinosus at <= 0.06 ug/ml by broth microdilution method
Streptococcus oralis [45] = experiment: Antimicrobial activity against viridans group Streptococcus oralis at 0.12 ug/ml by broth microdilution method
Corynebacterium jeikeium = experiment: Antimicrobial activity against Corynebacterium jeikeium at 0.25 ug/ml by broth microdilution method
[46] = test system: Streptococcus constellatus; experiment: Antimicrobial activity against viridans group Streptococcus constellatus at <= 0.06 ug/ml by broth microdilution method
Enterococcus gallinarum [47] = experiment: Antimicrobial activity against Enterococcus gallinarum at 4 ug/ml by broth microdilution method
Aerococcus [48] = experiment: Antimicrobial activity against Aerococcus spp. by broth microdilution method
[49] = test system: Enterococcus casseliflavus; experiment: Antimicrobial activity against Enterococcus casseliflavus at 0.25 ug/ml by broth microdilution method
Listeria monocytogenes [50] = experiment: Antimicrobial activity against Listeria monocytogenes at 0.5 ug/ml by broth microdilution method

CC(=O)NC[C@H]1CN(c2ccc(N3CCOCC3)c(F)c2)C(=O)O1 [LINEZOLID]
Inhibition (Streptococcus equinus [1]): 0% | inhibition at 0.25 µg/mL [2]: 0% | inhibition at 0.5 µg/mL [3]: 0% | inhibition at 0.5 µg/mL (Bacillus cereus [4]): 30% | Inhibition [5]: 0% | inhibition at 1 µg/mL (Streptococcus equinus [6]): 87.2% | Inhibition (Rothia mucilaginosa [7]): 0% | inhibition at 0.12 µg/mL (Aerococcus [8]): 0% | inhibition at 1 µg/mL [9]: 87.9% | MIC50 [10]: 0.5 µg/mL (≈ 1.48 µM) | MIC90 [10]: 1 µg/mL (≈ 2.96 µM) | inhibition at 0.5 µg/mL (Rothia mucilaginosa [11]): 83.3% | inhibition at 1 µg/mL (Streptococcus sanguinis [12]): 97.9% | inhibition at 0.5 µg/mL (Corynebacterium striatum [13]): 100% | inhibition at 0.25 µg/mL (Aerococcus [14]): 4.5% | inhibition at 2 µg/mL (Streptococcus sanguinis [15]): 100% | inhibition at 0.12 µg/mL (Streptococcus mitis [16]): 1.2% | inhibition at 0.25 µg/mL [17]: 100% | MIC50 (Corynebacterium striatum [18]): 0.25 µg/mL (≈ 0.741 µM) | MIC90 (Corynebacterium striatum [18]): 0.5 µg/mL (≈ 1.48 µM) | inhibition at 0.25 µg/mL (Enterococcus durans): 2% | inhibition at 0.12 µg/mL [19]: 0% | inhibition at 1 µg/mL (Rothia mucilaginosa [20]): 94.4% | inhibition at 1 µg/mL [21]: 100% | inhibition at 0.5 µg/mL (Streptococcus mitis [22]): 33.4% | inhibition at 1 µg/mL (Streptococcus salivarius): 98.9% | inhibition at 0.5 µg/mL (Streptococcus mutans [23]): 36.8% | Inhibition (Streptococcus [24]): 1.5% | inhibition at 0.5 µg/mL (Aerococcus [25]): 31.8% | inhibition at 0.12 µg/mL (Enterococcus avium [26]): 0% | inhibition at 0.25 µg/mL (Streptococcus [27]): 0.8% | MIC50 (Enterococcus avium [28]): 1 µg/mL (≈ 2.96 µM) | MIC90 (Enterococcus avium [28]): 2 µg/mL (≈ 5.93 µM) | Inhibition (Corynebacterium sp.): 2.1% | inhibition at 0.25 µg/mL (Enterococcus hirae [29]): 0% | inhibition at 1 µg/mL (Streptococcus mitis [30]): 99.1% | inhibition at 2 µg/mL (Streptococcus mutans [31]): 100% | inhibition at 0.25 µg/mL (Enterococcus gallinarum [32]): 0% | inhibition at 0.25 µg/mL [33]: 36.4% | Inhibition (Bacillus cereus [34]): 1.7% | MIC50 (Streptococcus oralis [35]): 1 µg/mL (≈ 2.96 µM) | MIC90 (Streptococcus oralis [35]): 1 µg/mL (≈ 2.96 µM) | inhibition at 0.25 µg/mL (Bacillus cereus [36]): 3.3% | inhibition at 0.25 µg/mL (Streptococcus mitis [37]): 4.4% | inhibition at 0.5 µg/mL (Enterococcus hirae [38]): 0% | inhibition at 0.12 µg/mL (Micrococcus luteus): 0% | inhibition at 1 µg/mL [39]: 98.9% | inhibition at 1 µg/mL (Streptococcus oralis [40]): 96.4% | inhibition at 0.5 µg/mL (Enterococcus gallinarum [41]): 1.7% | inhibition at 0.25 µg/mL (Listeria monocytogenes [42]): 0% | inhibition at 1 µg/mL (Bacillus cereus [43]): 98.3% | inhibition at 0.25 µg/mL (Streptococcus mutans [44]): 0% | Inhibition (Enterococcus raffinosus): 0% | inhibition at 0.12 µg/mL (Streptococcus oralis [45]): 0.7% | inhibition at 0.25 µg/mL (Corynebacterium jeikeium): 67.8% | Inhibition [46]: 1.1% | inhibition at 4 µg/mL (Enterococcus gallinarum [47]): 100% | MIC50 (Aerococcus [48]): 1 µg/mL (≈ 2.96 µM) | MIC90 (Aerococcus [48]): 2 µg/mL (≈ 5.93 µM) | inhibition at 0.25 µg/mL [49]: 0% | inhibition at 0.5 µg/mL (Listeria monocytogenes [50]): 0.7%
